Test results from patent US20240066131A1 (Protagonist Therapeutics, Inc., priority 2020, published 2024).
Starred links: 1 amine or outer side, 2 acyl side, 3 side chain; linkers in the order of their positions; H or OH if unused. Non-standard residues stand in square brackets, D forms with d. Residues, ends and D or L forms follow the SMILES beside them. Groups on a side chain read outwards from the residue. *: point of attachment. C18 diacid = O=C(O)CCCCCCCCCCCCCCCCC(=O)*; X15 = O=C([C@H](CCc1nnn[nH]1)N[*:1])[*:2]; X8 = O=C([C@H](CCc1nn[nH]n1)N[*:1])[*:2]; Dip = N[C@H](C(=O)O)C(c1ccccc1)c1ccccc1; His(τ-Me) = Cn1cnc(C[C@H](N)C(=O)O)c1; Palmitoyl = CCCCCCCCCCCCCCCC(=O)*; Myristoyl = CCCCCCCCCCCCCC(=O)*; β3hF = N[C@H](CC(=O)O)Cc1ccccc1; NMeL = CN[C@@H](CC(C)C)C(=O)O; Lauroyl = CCCCCCCCCCCC(=O)*; Decanoyl = CCCCCCCCCC(=O)*; Isovaleryl = CC(C)CC(=O)*; AEEA = NCCOCCOCC(=O)O; Ahx = NCCCCCC(=O)O; βAla = NCCC(=O)O

What follows are compounds tested against T1, ferroportin (Homo sapiens, UniProt Q9NP59) (assay: FPN activity assay: internalization/degradation of ferroportin-GFP in stably transfected HEK293 cells (loss of GFP fluorescence)). Details: Table 6A; read-out: FPN EC50.
T1 sequence (Q9NP59 1-571): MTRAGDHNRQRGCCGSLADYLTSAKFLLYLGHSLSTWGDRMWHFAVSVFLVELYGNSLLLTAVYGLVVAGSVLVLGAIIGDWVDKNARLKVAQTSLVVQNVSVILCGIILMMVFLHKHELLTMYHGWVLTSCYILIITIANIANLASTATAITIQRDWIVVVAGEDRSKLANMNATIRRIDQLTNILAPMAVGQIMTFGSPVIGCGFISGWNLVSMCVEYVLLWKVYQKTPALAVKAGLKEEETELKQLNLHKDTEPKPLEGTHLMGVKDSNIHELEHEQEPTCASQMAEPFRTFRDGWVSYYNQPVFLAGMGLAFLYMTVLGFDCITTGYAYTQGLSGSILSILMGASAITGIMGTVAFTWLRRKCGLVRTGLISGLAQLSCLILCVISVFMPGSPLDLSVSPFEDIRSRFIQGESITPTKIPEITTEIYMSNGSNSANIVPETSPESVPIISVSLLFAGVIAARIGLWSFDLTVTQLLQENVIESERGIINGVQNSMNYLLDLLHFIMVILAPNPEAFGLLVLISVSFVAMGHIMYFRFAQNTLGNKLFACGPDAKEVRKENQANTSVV
Type: cell-based
Experimental: Following internalization, the ferroporin protein is degraded.
A retro inverse peptide is a peptide with a reversed sequence in all D amino acids. An example is that Hy-Glu-Thr-His-NH2 becomes Hy-DHis-DThr-DGlu-NH2. The EC50 of these reference compounds for ferroportin internalization/degradation was determined according to the FPN activity assay described above. These peptides served as control standards.

| SMILES | DC50 [µM] |
| --- | --- |
| CCCCCCCCCCCCCCCC(=O)NCCCCCC(=O)NCCCC[C@H](NC(=O)[C@@H](NC(=O)[C@H](C)NC(=O)[C@@H]1CCCN1C(=O)[C@@H](NC(=O)[C@H](Cc1cn(C)cn1)NC(=O)[C@@H](NC(=O)[C@H](CC(C)C)NC(=O)CC(C)C)[C@@H](C)O)C(c1ccccc1)c1ccccc1)[C@@H](C)CC)C(=O)N[C@H](CC(N)=O)Cc1ccccc1 [compound 45] (Isovaleryl-LT[His(τ-Me)][Dip]PAIK([Ahx-Palmitoyl])[β3hF]-NH2) | > 3 |
| CCCCCCCCCCCCCCCC(=O)NCCCCCC(=O)NCCCC[C@H](NC(=O)[C@@H](NC(=O)[C@H](CC(C)C)NC(=O)[C@@H]1CCCN1C(=O)[C@@H](NC(=O)[C@H](Cc1c[nH]cn1)NC(=O)[C@@H](NC(=O)[C@H](CCC(=O)O)NC(=O)CC(C)C)[C@@H](C)O)C(c1ccccc1)c1ccccc1)[C@@H](C)CC)C(=O)N(C)[C@@H](CC(C)C)C(N)=O [compound 140] (Isovaleryl-ETH[Dip]PLIK([Ahx-Palmitoyl])[NMeL]-NH2) | 0.0324 |

Now from value to compound:

| DC50 [µM] | SMILES |
| --- | --- |
| 0.117 | CC[C@H](C)[C@H](NC(=O)[C@H](C)NC(=O)[C@@H]1CCCN1C(=O)[C@@H](NC(=O)[C@H](Cc1c[nH]cn1)NC(=O)[C@@H](NC(=O)[C@H](CCc1nnn[nH]1)NC(=O)CC(C)C)[C@@H](C)O)C(c1ccccc1)c1ccccc1)C(=O)N[C@@H](CCCCNC(C)=O)C(=O)N[C@H](CC(=O)N[C@H](CCCCN)C(=O)N[C@@H](C)C(N)=O)Cc1ccccc1 [compound 38] (Isovaleryl-[X15]TH[Dip]PAIK(Ac)[β3hF][dK]A-NH2) |
| > 3 | CC[C@H](C)[C@H](NC(=O)[C@H](C)NC(=O)[C@@H]1CCCN1C(=O)[C@@H](NC(=O)[C@H](Cc1cn(C)cn1)NC(=O)[C@@H](NC(=O)[C@H](CCc1nn[nH]n1)NC(=O)CC(C)C)[C@@H](C)O)C(c1ccccc1)c1ccccc1)C(=O)N[C@@H](CCCCNC(C)=O)C(=O)N[C@H](CC(=O)N[C@H](CCCCN)C(=O)N[C@@H](C)C(N)=O)Cc1ccccc1 [compound 40] (Isovaleryl-[X8]T[His(τ-Me)][Dip]PAIK(Ac)[β3hF][dK]A-NH2) |
| > 5 | CC[C@H](C)[C@H](NC(=O)[C@@H](NC(=O)[C@@H]1CCCN1C(=O)[C@@H](NC(=O)[C@H](Cc1c[nH]cn1)NC(=O)[C@@H](NC(=O)[C@H](CCC(=O)O)NC(=O)CNCC(=O)O)[C@@H](C)O)C(c1ccccc1)c1ccccc1)[C@@H](C)CC)C(=O)N[C@@H](CCCCNC(C)=O)C(=O)N[C@H](CC(N)=O)Cc1ccccc1 [compound 71] |
| 0.103 | CCCCCCCCCCCCCCCC(=O)NCCC(=O)NCCC(=O)NCCCC[C@H](NC(=O)[C@@H](NC(=O)[C@H](C)NC(=O)[C@@H]1CCCN1C(=O)[C@@H](NC(=O)[C@H](Cc1c[nH]cn1)NC(=O)[C@@H](NC(=O)[C@H](CCC(=O)O)NC(=O)CC(C)C)[C@@H](C)O)C(c1ccccc1)c1ccccc1)[C@@H](C)CC)C(=O)N[C@H](CC(N)=O)Cc1ccccc1 [compound 99] (Isovaleryl-ETH[Dip]PAIK([βAla-βAla-Palmitoyl])[β3hF]-NH2) |

Same assay, conditions: ferroportin-GFP HEK293 cells, compound incubated at least 18 hours; read-out: FPN IC50

| DC50 [µM] | SMILES |
| --- | --- |
| > 3 | CCCCCCCCCC(=O)NCCCCCC(=O)NCCCC[C@H](NC(=O)[C@@H](NC(=O)[C@H](C)NC(=O)[C@@H]1CCCN1C(=O)[C@H](Cc1ccccc1)NC(=O)[C@H](Cc1c[nH]cn1)NC(=O)[C@@H](NC(=O)[C@H](CCC(=O)O)NC(=O)CC(C)C)[C@@H](C)O)[C@@H](C)CC)C(=O)N[C@@H](Cc1ccccc1)C(=O)N[C@@H](CCC(=O)O)C(=O)N1CCC[C@H]1C(=O)N[C@@H](CCCNC(=N)N)C(=O)N[C@@H](CO)C(=O)N[C@@H](CCCCN)C(=O)NCC(=O)N[C@@H](C)C(=O)N[C@@H](CCCCN)C(N)=O [compound 244] (Isovaleryl-ETHFPAIK([Ahx-Decanoyl])FEPRSKGAK-NH2) |
| > 3 | CC[C@H](C)[C@H](NC(=O)[C@H](C)NC(=O)[C@@H]1CCCN1C(=O)[C@@H](NC(=O)[C@H](Cc1c[nH]cn1)NC(=O)[C@@H](NC(=O)[C@H](CCCCNC(=O)COCCOCCNC(=O)COCCOCCNC(=O)CCCCCNC(=O)CCCCCCCCCCCCCCCCC(=O)O)NC(C)=O)[C@@H](C)O)C(c1ccccc1)c1ccccc1)C(=O)N[C@H](CCCCN)C(=O)N[C@H](CC(N)=O)Cc1ccccc1 [compound 234] (Ac-K([AEEA-AEEA-Ahx-C18 diacid])TH[Dip]PAI[dK][β3hF]-NH2) |
| 1.16 | CCCCCCCCCCCCCC(=O)NCCCCCC(=O)NCCCC[C@H](NC(=O)[C@@H](NC(=O)[C@H](C)NC(=O)[C@@H]1CCCN1C(=O)[C@H](Cc1ccccc1)NC(=O)[C@H](Cc1c[nH]cn1)NC(=O)[C@@H](NC(=O)[C@H](CCC(=O)O)NC(=O)CC(C)C)[C@@H](C)O)[C@@H](C)CC)C(=O)N[C@@H](Cc1ccccc1)C(=O)N[C@@H](CCC(=O)O)C(=O)N1CCC[C@H]1C(=O)N[C@@H](CCCNC(=N)N)C(=O)N[C@H](CO)C(N)=O [compound 247] (Isovaleryl-ETHFPAIK([Ahx-Myristoyl])FEPR[dS]-NH2) |
| 0.654 | CCCCCCCCCCCCCCCC(=O)NCCCCCC(=O)NCCCC[C@H](NC(=O)CC(C)C)C(=O)N[C@H](C(=O)N[C@@H](Cc1c[nH]cn1)C(=O)N[C@H](C(=O)N1CCC[C@H]1C(=O)N[C@@H](C)C(=O)N[C@H](C(=O)N[C@H](CCCCN)C(=O)N[C@H](CC(N)=O)Cc1ccccc1)[C@@H](C)CC)C(c1ccccc1)c1ccccc1)[C@@H](C)O [compound 203] (Isovaleryl-K([Ahx-Palmitoyl])TH[Dip]PAI[dK][β3hF]-NH2) |
| 1.07 | CCCCCCCCCCCC(=O)NCCCCCC(=O)NCCCC[C@H](NC(=O)[C@@H](NC(=O)[C@H](C)NC(=O)[C@@H]1CCCN1C(=O)[C@H](Cc1ccccc1)NC(=O)[C@H](Cc1c[nH]cn1)NC(=O)[C@@H](NC(=O)[C@H](CCC(=O)O)NC(=O)CC(C)C)[C@@H](C)O)[C@@H](C)CC)C(=O)N[C@@H](Cc1ccccc1)C(=O)N[C@@H](CCC(=O)O)C(=O)N1CCC[C@H]1C(=O)N[C@@H](CCCNC(=N)N)C(=O)N[C@@H](CO)C(=O)N[C@@H](CCCCN)C(=O)NCC(=O)N[C@@H](C)C(=O)N[C@@H](CCCCN)C(N)=O [compound 243] (Isovaleryl-ETHFPAIK([Ahx-Lauroyl])FEPRSKGAK-NH2) |
